Marks after values point to notes of the source that are not given here.
Assays:
C-reactive protein (CRP) = test: C-reactive protein inflammatory biomarker, clinical study; assay type: in vivo, human; conditions: 12 weeks
rheumatoid factor = test: Rheumatoid factor inflammatory biomarker, clinical study; assay type: in vivo, human; conditions: 12 weeks
Text: These structural changes are accompanied by a reduction in the acute phase reactant, C-reactive protein (CRP) and other inflammatory markers such as rheumatoid factor (Table 4). Table 3. Effect of MCIM compounds on damage indicators. * indicates statistical significance, p<0.05. a p = 0.1

C[C@]1(O)CC[C@H](NS(=O)(=O)c2ccc(-c3ccc(Cl)cc3C#N)cc2)CC1 [HMC-C-01-A]
CRP- mean, Change from baseline (C-reactive protein (CRP); 5 mg once daily): 0.88 (18.4)
CRP- median, Change from baseline (C-reactive protein (CRP); 5 mg once daily): -0.20
CRP- mean, Change from baseline (C-reactive protein (CRP); 20 mg once daily): -4.13 (20.6)
CRP- median, Change from baseline (C-reactive protein (CRP); 20 mg once daily): -0.10
CRP- mean, Change from baseline (C-reactive protein (CRP); 40 mg once daily, p<0.05): -5.73 (27.7) *
CRP- median, Change from baseline (C-reactive protein (CRP); 40 mg once daily, p<0.05): -2.50 *
Rheumatoid factor, mean, Change from baseline (rheumatoid factor; 5 mg once daily): 6.8 (80.9)
Rheumatoid factor, mean, Change from baseline (rheumatoid factor; 20 mg once daily): -5.0 (60.4)
Rheumatoid factor, mean, Change from baseline (rheumatoid factor; 40 mg once daily): -11.3 (88.0)

Reference: EP4647071A1, “MITOCHONDRIAL COMPLEX I MODULATOR FOR USE IN THE TREATMENT OF ARTHRITIS” (Istesso Therapeutics Limited, priority 2024, dated 2025)
